Results: US20080280926A1, “Phosphodiesterase Inhibitors” (priority 2003, published 2008)

Q: For `C=CCNC(=O)Nc1ncnc2c1nc(-n1cccn1)n2Cc1ccccc1` [Compound No. 12, 1-Allyl-3-(9-benzyl-8-pyrazol-1-yl-9H-purin-6-yl)-urea], which melting point is on record?
A: 189.5 to 199 °C

Q: Which melting point does the source give for `CC(C)(C)C(=O)Nc1ncnc2c1nc(-n1cccn1)n2Cc1ccccc1` [Compound No. 1, N-(9-Benzyl-8-pyrazol-1-yl-9H-purin-6-yl)-2,2-dimethylpropionamide] here?
A: 124 to 125 °C
